Experimental data as given in patent US12296018B2, “Albumin binding peptide-drug (AlBiPeD) conjugates and methods of making and using same” (priority 2018, dated 2025).
Several values for one entry are separate records, joined by “and”; a condition that tells them apart may be missing. Identical values can stand only once.

Experiments:
[1] = system: C26 colon carcinoma tumors; test: In vivo tumor regression, syngeneic C26 model; set-up: species or system BALB/c mice; conditions: 20 mg Dox Equiv.kg^−1 BW
Experimental: (§1) In vivo tumor regression For in vivo tumor implantation, C26 cells at 5×10^5 cells in 30 μL Minimum Essential Medium (MEM) (Invitrogen, Carlsbad, CA) and MIA PaCa-2 cells at 2×10^6 cells in 50 μL 10:90 v/v MEM: Matrigel matrix (Corning Inc, Corning, New York) were inoculated in the right flank of normal and athymic nude BALB/c mice, respectively. Tumor cells were allowed to grow until the tumor volume, calculated as π/6×length×width^2, reached 75-100 mm^3 for C26 tumors and 100-125 mm^3 for MIA PaCa-2 tumors. Tumor bearing mice were then treated with ABD-Dox at 10 and 20 mg Dox Equiv.kg^−1 BW, AlDox at 20 mg Dox Equiv.kg^−1 BW, and free Dox at 10 mgkg^−1 BW. Tumor volumes and body weights were monitored for 100 days after treatment and mice displaying excessive tumor volume (>[…]), body weight loss (>15%), or ill health were euthanized. Tumor growth and survival data were analyzed by GraphPad Prism software. Survival curves were generated with the Kaplan-Meier method and compared with the log-rank (Mantel-Cox) test. Tumor growth data were compared with a paired one-way ANOVA followed by Tukey-Kramer (Tukey's) post-hoc test. P<0.05 was considered as statistically significant.
(§2) For in vivo tumor regression studies, a single dose of ABD-Dox was injected via tail vein at 10 mg Dox Equiv.kg^−1 BW (MTD of free Dox) and 20 mg Dox Equiv.kg^−1 BW (MTD of ABD-Dox) in separate cohorts of BALB/c mice with s.c. C26 tumors or nude mice with s.c. MIA Paca-2 tumors. Free Dox was injected at its MTD of 10 mgkg-1 BW, and AlDox was injected at 20 mg Dox Equiv.kg^−1 BW, a dose that was reported to be safe in previous studies. All animals were injected when the tumors were 75-100 mm; in size for C26 tumors and 100-125 mm^3 for MIA PaCa-2 tumors.

Aqueous solubility = assay type: physicochemical
Experimental: To remove the ELP160 tag, the KEKE-ELP160-srt-ABD-Dox conjugate was buffer exchanged into sortase reaction buffer, and was reacted with (His)6-sortase A-ELP40 in the presence of a 50 fold molar excess of triglycine (FIG. 2A). The efficiency of the sortase reaction, defined as the percent conversion of ELP-ABD-Dox substrate to ABD-Dox, was determined by size exclusion HPLC and was calculated to be ≥85% (FIG. 3A). The ABD-Dox product was then separated from (His)6-sortase A-ELP40, the cleaved KEKE-ELP160 tag, and unreacted KEKE-ELP160-srt-ABD-Dox in the sortase reaction solution by preparative size exclusion chromatography (SEC). The number of Dox molecules conjugated per ABD (Dox/ABD molar ratio) was measured before the sortase reaction by dissolving the lyophilized KEKE-ELP160-srt-ABD-Dox conjugate in PBS and calculating the moles of KEKE-ELP160-srt-ABD-Dox and Dox gravimetrically and spectrophotometrically at 488 nm, respectively. 3-4 Dox molecules were attached to each KEKE-ELP160-srt-ABD-(CGG)8. However, following removing the ELP160 tag, the resulting ABD-Dox conjugate was too hydrophobic and insoluble in pH 7.4 PBS because of the high number of conjugated Dox molecules. […] Formulation of AlDox in acidic pH, however, is undesirable as it can trigger the premature, in vitro degradation of the hydrazone bond between Dox and EMCH, converting AlDox back to free Dox.

[2] = system: MIA PaCa-2 pancreatic tumor xenografts; test: In vivo tumor regression, MIA PaCa-2 xenograft model; set-up: species or system nude BALB/c mice
Experimental: as §1, §2

[3] = Dose-escalation study, maximum tolerated dose; assay type: in vivo, BALB/c mice; conditions: i.v., healthy BALB/c mice, two weeks; no mortality or body weight loss greater than 15%
Experimental: With these encouraging biodistribution results in hand, tumor regression in vivo by ABD-Dox was investigated. The maximum tolerated dose (MTD) of ABD-Dox was established in healthy mice. A range of doses of ABD-Dox were injected into healthy BALB/c mice, and body weight loss and mortality of the mice were monitored over a two-week period to assess systemic toxicity. […] Using these criteria, the MTD was determined to be 20 mg Dox Equiv.kg^−1 for ABD-Dox (FIG. 7) and 10 mgkg^−1 BW MTD of free Dox (FIG. 8).

[4] = system: C26 murine colon carcinoma cells; test: In vitro cytotoxicity (MTS, 72 h) C26; assay type: cell-based; conditions: 72 h incubation, Dox Equiv. concentration
Experimental: (§3) In vitro cytotoxicity C26 murine colon carcinoma cells and three different pancreatic cancer cell lines, BxPC-3, AsPC-1, and MIA PaCa-2, were used to study the in vitro cytotoxicity of ABD-DOX and Dox. Cells were cultured and grown as monolayers at 37° C. with C02 in a humidified incubator and were passaged at ˜80% confluency using 0.05% trypsin-EDTA (Invitrogen, Carlsbad, CA). C26, BxPC-3, AsPC-1, and MIA PaCa-2 cells were seeded in 96-well plates (5,000 cells/well) and incubated overnight. Three-fold serial dilutions of drug were then added to the wells in triplicate and also to control wells (media with no cells) to correct for the background Dox absorbance. After 72 h treatment, 20 μL MTS reagent was added to each well and was incubated for 3 h at 37° C., and the absorbance at 490 nm was measured using a Victor3 plate reader (Perkin Elmer, Boston, MA). Cell viability (%) was defined as the percentage of the absorbance of the drug-treated cells relative to buffer-treated cells and IC50 values were determined using logistic non-linear regression analysis with GraphPad Prism software. The IC50 was defined as the Dox Equiv. concentration of formulations resulting in 50% growth inhibition compared with a negative control, buffer-treated cells.

MIA PaCa-2 cells = test: In vitro cytotoxicity (MTS, 72 h) MIA PaCa-2; assay type: cell-based, human; conditions: 72 h incubation, Dox Equiv. concentration
Experimental: as §3

[5] = Tissue biodistribution in C26 tumor-bearing BALB/c mice; assay type: in vivo
Source text: The tissue concentration of Dox.

[6] = Intravenous pharmacokinetics in healthy BALB/c mice
Experimental: Pharmacokinetics and biodistribution Pharmacokinetics and biodistribution experiments were performed to study the concentration of ABD-Dox in blood and tissues over time following intravenous (i.v.) administration. For the pharmacokinetic study, ABD-Dox and Dox in PBS and AlDox in 10 mM sodium phosphate, 5% D-(+)-glucose, pH 5.8 were injected at 5 mg Dox Equiv. per kg of body weight (BW) into healthy BALB/c mice. 10 μL blood samples were collected at 40 s, 15 min and 30 min, and 2, 4, 8, 24, 48, 72 and 96 h post injection and were diluted into heparinized PBS (1 kUmL^−1), and centrifuged at 4,000 rcf, 10 min, 4° C. to collect the plasma. 10 μL of the plasma samples were then diluted in 490 μL of acidified isopropanol (0.075 M HCl, 10% water) and incubated overnight at 4° C. For the biodistribution study, ABD-Dox and Dox in PBS were injected at 5 mg Dox Equiv.kg^−1 BW into C26 tumor-bearing BALB/c mice. At 2 h, 24 h, and 72 h post-injection, mice were sacrificed and tumor, heart, lung, liver, spleen, kidney and muscle tissues were dissected, weighed, homogenized in acidified isopropanol using a Mini-Beadbeater (Biospec, Bartlesville, OK) with 2 mm diameter zirconia beads for 1-2 min, and were incubated overnight at 4° C. Following overnight incubation in acidified isopropanol, plasma and tissue samples were centrifuged at 16,000 rcf, 4° C. for 10 min and the supernatants were loaded onto black 96-well plates in duplicate and the Dox fluorescence was measured using on a Victor3 microplate reader (Perkin Elmer, Waltham, MA) with fluorescence excitation at 485 nm and emission at 590 nm. Tissues were also dissected from three untreated mice, processed in the same manner, serially diluted, and loaded on the plates to prepare a standard curve of fluorescence intensity versus the weight for each tissue from which the background tissue fluorescence was calculated and subtracted for each sample. Serial dilution of free Dox in acidified isopropanol was used as standard to quantify the Dox concentration as […] per liter of plasma (μM) and as the percent of the injected dose per gram (% ID g^−1) in the tumor and other tissues. Plasma concentrations of Dox Equiv. of ABD-Dox versus time were fit to a two-compartment model using SAAM II software (SAAM Institute, Seattle, WA) and the elimination half-life and the area-under-curve were computed. The tissue concentration of Dox. Equiv. of ABD-Dox and free Dox at each time point were compared in GraphPad Prism software (GraphPad, San Diego, CA) by Student's t-test with P<0.05 considered statistically significant.

[7] = system: BxPC-3 pancreatic cancer cells; test: In vitro cytotoxicity (MTS, 72 h) BxPC-3; assay type: cell-based, human; conditions: 72 h incubation, Dox Equiv. concentration
Experimental: as §3

[8] = system: AsPC-1 pancreatic cancer cells; test: In vitro cytotoxicity (MTS, 72 h) AsPC-1; assay type: cell-based, human; conditions: 72 h incubation, Dox Equiv. concentration
Experimental: as §3

COc1cccc2c1C(=O)c1c(O)c3c(c(O)c1C2=O)C[C@@](O)(/C(CO)=N/NC(=O)CCCCCN1C(=O)C=CC1=O)C[C@@H]3O[C@H]1C[C@H](N)[C@H](O)[C@H](C)O1 [AlDox, Aldoxorubicin, reference compound]
eradication of C26 tumors [1]: incomplete eradication
mice that did not survive over the 100-day course of study [1]: 25%
recurrence of the primary tumor [1]: without recurrence of the primary tumor in any mice
concentration at which acidic pH is required for solubility in aqueous solutions (Aqueous solubility): ≥ 0.5 mg Dox Equiv.mL^−1
solubility (Aqueous solubility; physiological pH): poor solubility
mice showing tumor disappearance ([2]; by day 15 after treatment, 20 mg Dox Equiv.kg^−1 BW): 50%
tumor recurrence in tumor-eradicated mice ([2]; by day 50, 20 mg Dox Equiv.kg^−1 BW): all

COc1cccc2c1C(=O)c1c(O)c3c(c(O)c1C2=O)C[C@@](O)(C(=O)CO)C[C@@H]3O[C@H]1C[C@H](N)[C@H](O)[C@H](C)O1 [free Dox, Doxorubicin, reference compound]
maximum tolerated dose (MTD) [3]: 10 mgkg^−1 BW
IC50 [4]: 500 nM and 510 nM
IC50 (MIA PaCa-2 cells): 40 nM
concentration of Dox equivalent in tumor ([5]; 2 h after administration): 1.6 % ID.g^−1
minimum tumor accumulation ([5]; over 72 h): 0.07 % ID.g^−1
concentration in blood relative to initial concentration ([6]; 15 min after i.v. injection): less than 2%
in vivo elimination half-life ([6]; i.v., 5 mg Dox Equiv. per kg BW): on the order of minutes
IC50 [7]: 400 nM
IC50 [8]: 2500 nM
